In this test the test system is HBV rcDNA. Description: HepDE19 assay with bDNA quantitation of HBV rcDNA. It counts as cell-based, hepatitis B virus. Summed up:
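HepDE19 cells (HepG2-derived, Tet-regulated HBV replication) were deprived of tetracycline and then exposed to compounds for 7 days at 37 °C in 0.5% DMSO, 8-point titration from 25 μM. rcDNA was quantified by bDNA and EC50/EC90 came from 4-parameter fits. CC50 was measured by CellTiter-Glo ATP content on replicate plates after 4 days.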

Setting [1] is: HepDE19 assay, inhibition of formation of relaxed circular DNA (rcDNA), bDNA quantitation, read-out: DE-19bDNA EC50.
[2] abbreviates: Hepatitis B virus, HepDE19, HepDE19 assay, inhibition of formation of rcDNA, read-out: DE-19bDNA EC50.
[3] abbreviates: HepDE19 assay, inhibition of formation of rcDNA, read-out: DE-19bDNA EC50.

Each structure is given as a SMILES string. Like-named read-outs stand apart in the source and are kept apart here.

The EC50 is the concentration that produces a half-maximal response. Turning to `CC(c1cnc(C(=O)N(C)C)c2ccccc12)N(C)C(=O)Nc1ccc(F)c(Cl)c1` (single isomer, unassigned) [Compound 318, 4-(1-(3-(3-Chloro-4-fluorophenyl)-1-methylureido)ethyl)-N,N-dimethylisoquinoline-1-carboxamide], the EC50 under setting [1] was 24 µM.

`CNc1ncc(C(C)N(C)C(=O)Nc2ccc(F)c(Cl)c2)c2nccnc12` (racemic) [Compound 136, 3-(3-chloro-4-fluorophenyl)-1-methyl-1-(1-(5-(methylamino)pyrido[3,4-b]pyrazin-8-yl)ethyl)urea]: the EC50 under setting [2] stood at 2.8 µM.

Consider `CC(C)CN(C(=O)Nc1ccc(F)c(Cl)c1)C(C)c1c[nH]c(=O)c2cnccc12` (racemic) [Compound 154, 3-(3-Chloro-4-fluorophenyl)-1-isobutyl-1-(1-(1-oxo-1,2-dihydro-2,7-naphthyridin-4-yl)ethyl)urea], for which the EC50 under setting [2] was 0.02 µM.

As for `CC(C)CN(C(=O)Nc1ccc(F)c(Cl)c1)C(C)c1c[nH]c(=O)c2c(F)cc(F)cc12` (single isomer, unassigned) [Compound 372, 3-(3-Chloro-4-fluorophenyl)-1-(1-(6,8-difluoro-1-oxo-1,2-dihydroisoquinolin-4-yl)ethyl)-1-isobutylurea], the EC50 under setting [1] was found to be 0.005 µM.

Take `COc1ncc(C(C)N(CCNCC(F)(F)F)C(=O)Nc2ccc(F)c(Cl)c2)c2ccccc12` (racemic) [Compound 158, 3-(3-Chloro-4-fluorophenyl)-1-(1-(1-methoxyisoquinolin-4-yl)ethyl)-1-(2-((2,2,2-trifluoroethyl)amino)ethyl)urea]: the EC50 under setting [2] amounted to 2.7 µM.

`CC(c1c[nH]c(=O)c2ccccc12)N(CCO)C(=O)Nc1ccc(F)c(Cl)c1` (single isomer, unassigned) [Compound 196, 3-(3-Chloro-4-fluorophenyl)-1-(2-hydroxyethyl)-1-(1-(1-oxo-1,2-dihydroisoquinolin-4-yl)ethyl)urea]: the half-maximal effective concentration (EC50) under setting [3] worked out at 20 µM.

For `CC(c1c[nH]c(=O)c2cc(F)ccc12)N(CCS(N)(=O)=O)C(=O)Nc1ccc(F)c(Cl)c1` (single isomer, unassigned) [Compound 383, 2-(3-(3-Chloro-4-fluorophenyl)-1-(1-(7-fluoro-1-oxo-1,2-dihydroisoquinolin-4-yl)ethyl)ureido) ethane-1-sulfonamide], under setting [1], the EC50 was found to be 7 µM.

`CC(c1c[nH]c(=O)c2ccccc12)N(CCC#N)C(=O)Nc1ccc(F)c(Cl)c1` (single isomer, unassigned) [Compound 113, 3-(3-Chloro-4-fluorophenyl)-1-(2-cyanoethyl)-1-(1-(1-oxo-1,2-dihydroisoquinolin-4-yl)ethyl)urea]: the EC50 under setting [3] is 0.06 µM.

`CC(c1c[nH]c(=O)c2c(F)c(F)ccc12)N(C)C(=O)Nc1ccccc1F` (single isomer, unassigned) [Compound 457, 1-(1-(7,8-Difluoro-1-oxo-1,2-dihydroisoquinolin-4-yl)ethyl)-3-(2-fluorophenyl)-1-methylurea]: the EC50 (Hepatitis B virus, HepDE19, read-out: DE-19bDNA EC50 (μM), HepDE19 assay, inhibition of formation of relaxed circular DNA (rcDNA), bDNA quantitation) is 0.74 µM.

As for `CCN(C(=O)Nc1ccc(F)cc1)C(C)c1c[nH]c(=O)c2cc(F)c(F)cc12` (single isomer, unassigned) [Compound 403, 1-(1-(6,7-Difluoro-1-oxo-1,2-dihydroisoquinolin-4-yl)ethyl)-1-ethyl-3-(4-fluorophenyl)urea], under setting [1], the concentration giving a half-maximal response (EC50) turned out to be 0.028 µM.

Regarding `CC(c1c[nH]c(=O)c2cc(F)c(F)cc12)N(C)C(=O)Nc1ccc(F)c(C(F)F)c1` (single isomer, unassigned) [Compound 502, 1-(1-(6,7-Difluoro-1-oxo-1,2-dihydroisoquinolin-4-yl)ethyl)-3-(3-(difluoromethyl)-4-fluorophenyl)-1-methylurea], the concentration for a half-maximal effect (EC50) under setting [1] came out at 0.017 µM.

As for `CC(c1c[nH]c(=O)c2ccccc12)N(CCCC#N)C(=O)Nc1ccc(F)c(Cl)c1` (single isomer, unassigned) [Compound 115, 3-(3-Chloro-4-fluorophenyl)-1-(3-cyanopropyl)-1-(1-(1-oxo-1,2-dihydroisoquinolin-4-yl)ethyl)urea], the EC50 under setting [3] was found to be 0.01 µM.

On to `CC(c1c[nH]c(=O)c2ccncc12)N(C)C(=O)Nc1ccc(F)c(Cl)c1` (stereo not shown) [Compound 127, 3-(3-chloro-4-fluorophenyl)-1-methyl-1-(1-(1-oxo-1,2-dihydro-2,6-naphthyridin-4-yl)ethyl)urea], for which, under setting [2], the EC50 was 1 µM.

As to `CC(C)CN(C(=O)Nc1ccc(F)c(Cl)c1)C(C)c1c[nH]c(=O)c2c(F)cccc12` (single isomer, unassigned) [Compound 361, 3-(3-Chloro-4-fluorophenyl)-1-(1-(8-fluoro-1-oxo-1,2-dihydroisoquinolin-4-yl)ethyl)-1-isobutylurea], the EC50 under setting [1] was 0.012 µM.

For `[2H]C([2H])([2H])C([2H])([2H])N(C(=O)Nc1ccc(F)c(Cl)c1)[C@H](C)c1c[nH]c(=O)c2ccccc12` [Compound 99, (R)-3-(3-Chloro-4-fluorophenyl)-1-(ethyl-d5)-1-(1-(1-oxo-1,2-dihydroisoquinolin-4-yl)ethyl)urea], under setting [2], the EC50 came out at 0.03 µM.

Consider `CC(c1c[nH]c(=O)c2ccccc12)N(CC1COC(C)(C)OC1)C(=O)Nc1ccc(F)c(Cl)c1` (single isomer, unassigned) [Compound 272, 3-(3-Chloro-4-fluorophenyl)-1-((2,2-dimethyl-1,3-dioxan-5-yl)methyl)-1-(1-(1-oxo-1,2-dihydroisoquinolin-4-yl)ethyl)urea], for which the EC50 under setting [3] came to 1.8 µM.

Turning to `CC(c1cnc(OCc2ncn(C)n2)c2ccccc12)N(CCCO)C(=O)Nc1ccc(F)c(Cl)c1` (single isomer, unassigned) [Compound 256, 3-(3-Chloro-4-fluorophenyl)-1-(3-hydroxypropyl)-1-(1-(1-((1-methyl-1H-1,2,4-triazol-3-yl)methoxy)isoquinolin-4-yl)ethyl)urea], the EC50 under setting [3] stood at 0.013 µM.

Consider `CC(c1c[nH]c(=O)c2cc(F)c(F)cc12)N(C)C(=O)Nc1cccc(F)c1` (single isomer, unassigned) [Compound 411, 1-(1-(6,7-Difluoro-1-oxo-1,2-dihydroisoquinolin-4-yl)ethyl)-3-(3-fluorophenyl)-1-methylurea], for which, where the note is “read-out: DE-19bDNA EC50, HepDE19 assay, inhibition of formation of relaxed circular DNA (rcDNA), bDNA quantitation”, the EC50 came to 0.037 µM.

Take `CC(c1c[nH]c(=O)c2cc(F)c(F)cc12)N(C)C(=O)Nc1cccc(F)c1F` (single isomer, unassigned) [Compound 431, 1-(1-(6,7-Difluoro-1-oxo-1,2-dihydroisoquinolin-4-yl)ethyl)-3-(2,3-difluorophenyl)-1-methylurea]: the EC50 under setting [1] was determined as 0.29 µM.

For the molecule `CNC(=O)N(C)C(C)c1c[nH]c(=O)c2ccccc12` (single isomer, unassigned) [Compound 298, 1,3-Dimethyl-1-(1-(1-oxo-1,2-dihydroisoquinolin-4-yl)ethyl)urea], the EC50 (Hepatitis B virus, HepDE19, HepDE19 assay, inhibition of formation of relaxed circular DNA (rcDNA), bDNA quantitation, read-out: DE-19bDNA EC50) came to 24 µM.

For `CC(c1c[nH]c(=O)c2c(F)c(F)ccc12)N(C)C(=O)Nc1ccc2cc[nH]c2c1` (single isomer, unassigned) [Compound 498, 1-(1-(7,8-Difluoro-1-oxo-1,2-dihydroisoquinolin-4-yl)ethyl)-3-(1H-indol-6-yl)-1-methylurea], the concentration giving a half-maximal response (EC50) under setting [1] came out at 11 µM.

As for `COc1ncc(C(C)N(C)C(=O)Nc2ccc(F)c(Cl)c2)c2ccccc12` (single isomer, unassigned) [Compound 30, 3-(3-chloro-4-fluorophenyl)-1-(1-(1-methoxyisoquinolin-4-yl)ethyl)-1-methylurea], the EC50 under setting [2] came out at 0.56 µM.

These data come from patent US20230045421A1 (priority 2018, published 2023).
